Paper PMC10139140, “Synthesis of Novel 2-(Cyclopentylamino)thiazol-4(5H)-one Derivatives with Potential Anticancer, Antioxidant, and 11β-HSD Inhibitory Activities” (International Journal of Molecular Sciences, 2023)
Values belong to the compound of their own block, whether it stands above or below them.

How the values were obtained:
[1] = biological target: T1, 11β-HSD1 (Homo sapiens, UniProt P28845); assay: Inhibition of 11β-HSD1 (cortisone to cortisol, human liver microsomes, cortisol ELISA); type: biochemical; conditions: for inhibition at 10 µM: 2.5 h, 37 °C
T1 construct: Human liver microsomes were used as a source of 11β-HSD1 enzyme; tissue XenoTech Lot No. 1410013; host or cells: pooled human liver microsomes, mixed gender
T1 sequence (P28845 whole entry): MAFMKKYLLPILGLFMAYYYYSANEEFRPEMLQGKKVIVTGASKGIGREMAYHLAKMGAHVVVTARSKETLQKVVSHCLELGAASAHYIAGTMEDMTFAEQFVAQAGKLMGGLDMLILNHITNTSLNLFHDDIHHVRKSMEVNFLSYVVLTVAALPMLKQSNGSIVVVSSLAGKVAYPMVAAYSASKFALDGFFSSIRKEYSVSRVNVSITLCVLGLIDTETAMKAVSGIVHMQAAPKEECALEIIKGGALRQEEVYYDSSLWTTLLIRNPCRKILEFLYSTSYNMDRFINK
Procedure: The resulting solution with a final volume of 100 µL was incubated for 2.5 h at 37 °C. To stop the reaction, 10 µL of a 100 µM solution of 18β-glycyrrhetinic acid in PBS was added. The level of cortisol obtained in the reaction was measured by commercially available ELISA kit.
As a control, analogous tests without the addition of inhibitors were used. Half the inhibitory concentration (causing 50% reduction of cortisol or cortisone) was read from the chart.

[2] = biological target: T2, 11β-HSD2 (Homo sapiens, UniProt P80365); assay: Inhibition of 11β-HSD2 (cortisol to cortisone, human microsomes, cortisol ELISA); type: biochemical; conditions: 2.5 h, 37 °C
T2 construct: Human liver microsomes were used as a source of 11β-HSD2 enzyme; tissue XenoTech Lot No. 1710160; host or cells: human kidney microsomes, mixed gender (method text says human liver microsomes)
T2 sequence (P80365 1-405): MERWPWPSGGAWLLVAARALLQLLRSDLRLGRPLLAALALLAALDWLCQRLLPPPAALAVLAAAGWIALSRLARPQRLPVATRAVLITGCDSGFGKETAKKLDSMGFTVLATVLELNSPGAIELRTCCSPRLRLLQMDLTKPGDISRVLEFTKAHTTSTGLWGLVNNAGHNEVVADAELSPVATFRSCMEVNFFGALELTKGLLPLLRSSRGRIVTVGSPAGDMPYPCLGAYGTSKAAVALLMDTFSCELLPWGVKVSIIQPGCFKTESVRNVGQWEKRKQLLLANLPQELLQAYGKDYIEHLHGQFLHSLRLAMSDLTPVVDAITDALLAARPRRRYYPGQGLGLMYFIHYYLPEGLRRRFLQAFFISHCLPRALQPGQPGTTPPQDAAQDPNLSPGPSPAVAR
Procedure: The resulting solution with a final volume of 100 µL was incubated for 2.5 h at 37 °C. […] The level of unreacted cortisol was measured by a commercially available ELISA kit.

[3] = test system: BJ cells; assay: MTS metabolic activity assay, BJ cells; type: cell-based; conditions: Homo sapiens, 72 h, read-out: Cell metabolic activity (MTS), % of untreated control
Procedure: (§1) The BJ (CRL-2522), Caco-2 (HTB-37), PANC-1 (CRL-1469), U-118 MG (HTB-15), SK-MEL-30 (ACC 151), and MDA-MB-231 (HTB-26) cell lines were purchased from ATCC (Manassas, VA, USA) or DSMZ (Braunschweig, GERMANY). Cells were cultured in accordance with manufacturers' recommendations in a DMEM, MEM, or RPMI-1640 (Sigma, Saint Louis, MO, USA; Gibco, Waltham, MA, USA), supplemented with 10% FBS, except for Caco-2 (20%) (Thermo Fisher Scientific, Waltham, MA, USA) and 1% antibiotic mix solution (penicillin, streptomycin; Thermo Fisher Scientific, Waltham, MA, USA) in a humidified atmosphere with 5% CO2 at 37 °C. All cell lines were cultured in T75 cell culture flasks or cell culture dishes to reach 80–90% confluency and seeded at a standard density of 5 × 10^3 cells/0.32 cm^2, except for BJ cells at 2 × 10^3 cells/0.32 cm^2.
(§2) The MTS ((MTS: 3-(4,5-dimethylthiazol-2-yl)-5-(3-carboxymethoxyphenyl)-2-(4-sulfophenyl)-2H-tetrazolium)) assay was performed following previously reported method. Briefly, cells were seeded at a standard density into 96-well flat-bottom plates and incubated for 24 h, followed by the treatment. The various concentrations of compounds were prepared and treated for the next 72 h. MTS solution was added for 3h and incubated at standard conditions, protected from light. Finally, the absorbance was read at […] and 620 nm wavelengths using a Synergy H1 microplate reader (BioTek, Santa Clara, CA, USA). The results are presented as %, while untreated control cells were considered 100%.

[4] = test system: human colon carcinoma (Caco-2); assay: MTS metabolic activity assay, Caco-2 cells; type: cell-based; conditions: Homo sapiens, 72 h, read-out: Cell metabolic activity (MTS), % of untreated control; for viability at 10 µM: Caco-2, 10 µM; for viability at 20 µM: Caco-2, 20 µM; for viability at 50 µM: Caco-2, 50 µM; for viability at 100 µM: Caco-2, 100 µM; for viability at 200 µM: Caco-2, 200 µM; for viability at 300 µM: Caco-2, 300 µM; for viability at 500 µM: Caco-2, 500 µM
Procedure: as §1, §2

[5] = test system: human pancreatic carcinoma (PANC-1); assay: MTS metabolic activity assay, PANC-1 cells; type: cell-based; conditions: Homo sapiens, 72 h, read-out: Cell metabolic activity (MTS), % of untreated control; for viability at 10 µM: PANC-1, 10 µM; for viability at 20 µM: PANC-1, 20 µM; for viability at 50 µM: PANC-1, 50 µM; for viability at 100 µM: PANC-1, 100 µM; for viability at 200 µM: PANC-1, 200 µM; for viability at 300 µM: PANC-1, 300 µM; for viability at 500 µM: PANC-1, 500 µM
Procedure: as §1, §2

[6] = test system: glioma (U-118 MG); assay: MTS metabolic activity assay, U-118 MG cells; type: cell-based; conditions: Homo sapiens, U-118-MG, U118-MG, 72 h, read-out: Cell metabolic activity (MTS), % of untreated control
Procedure: as §1, §2

[7] = test system: skin melanoma (SK-MEL-30); assay: MTS metabolic activity assay, SK-MEL-30 cells; type: cell-based; conditions: Homo sapiens, 72 h, read-out: Cell metabolic activity (MTS), % of untreated control; for viability at 10 µM: SK-MEL-30, 10 µM; for viability at 20 µM: SK-MEL-30, 20 µM; for viability at 50 µM: SK-MEL-30, 50 µM; for viability at 100 µM: SK-MEL-30, 100 µM; for viability at 200 µM: SK-MEL-30, 200 µM; for viability at 300 µM: SK-MEL-30, 300 µM; for viability at 500 µM: SK-MEL-30, 500 µM
Procedure: as §1, §2

[8] = test system: human breast carcinoma (MDA-MB-231); assay: MTS metabolic activity assay, MDA-MB-231 cells; type: cell-based; conditions: Homo sapiens, 72 h, read-out: Cell metabolic activity (MTS), % of untreated control; for viability at 10 µM: MDA-MB-231, 10 µM; for viability at 20 µM: MDA-MB-231, 20 µM; for viability at 50 µM: MDA-MB-231, 50 µM; for viability at 100 µM: MDA-MB-231, 100 µM; for viability at 200 µM: MDA-MB-231, 200 µM; for viability at 300 µM: MDA-MB-231, 300 µM; for viability at 500 µM: MDA-MB-231, 500 µM
Procedure: as §1, §2

IC50 [1]: > 10 µM | inhibition at 10 µM [1]: 10.9 ± 4.08% | inhibition at 10 µM [2]: 40.3 ± 0.65%
Structure (SMILES): CC1SC(NC2CCCC2)=NC1=O (stereo not drawn) [Compound 3a, 2-(cyclopentylamino)-5-methylthiazol-4(5H)-one]
viability at 10 µM [3]: 95.9% | viability at 20 µM [3]: 98.4% | viability at 50 µM [3]: 102% | viability at 100 µM [3]: 112% | viability at 200 µM [3]: 109% | viability at 300 µM [3]: 109% | viability at 500 µM [3]: 110% | viability at 10 µM [4]: 86.2% | viability at 20 µM [4]: 92.8% | viability at 50 µM [4]: 82.6% | viability at 100 µM [4]: 81.6% | viability at 200 µM [4]: 76.9% | viability at 300 µM [4]: 75.5% | viability at 500 µM [4]: 66.8% | viability at 10 µM [5]: 99.7% | viability at 20 µM [5]: 104% | viability at 50 µM [5]: 106% | viability at 100 µM [5]: 107% | viability at 200 µM [5]: 110% | viability at 300 µM [5]: 106% | viability at 500 µM [5]: 104% | viability at 10 µM [6]: 111% | viability at 20 µM [6]: 109% | viability at 50 µM [6]: 113% | viability at 100 µM [6]: 110% | viability at 200 µM [6]: 110% | viability at 300 µM [6]: 110% | viability at 500 µM [6]: 105% | viability at 10 µM [7]: 104% | viability at 20 µM [7]: 102% | viability at 50 µM [7]: 102% | viability at 100 µM [7]: 106% | viability at 200 µM [7]: 103% | viability at 300 µM [7]: 101% | viability at 500 µM [7]: 97.6% | viability at 10 µM [8]: 105% | viability at 20 µM [8]: 107% | viability at 50 µM [8]: 103% | viability at 100 µM [8]: 105% | viability at 200 µM [8]: 104% | viability at 300 µM [8]: 93.6% | viability at 500 µM [8]: 89.8%

IC50 [1]: > 10 µM | inhibition at 10 µM [1]: 21.3 ± 3.29% | inhibition at 10 µM [2]: 39.7 ± 0.07%
Structure (SMILES): CCC1SC(NC2CCCC2)=NC1=O (stereo not drawn) [Compound 3b, 2-(cyclopentylamino)-5-ethylthiazol-4(5H)-one]
viability at 10 µM [3]: 97.9% | viability at 20 µM [3]: 98.5% | viability at 50 µM [3]: 102% | viability at 100 µM [3]: 108% | viability at 200 µM [3]: 110% | viability at 300 µM [3]: 112% | viability at 500 µM [3]: 111% | viability at 10 µM [4]: 87.9% | viability at 20 µM [4]: 87.3% | viability at 50 µM [4]: 84.4% | viability at 100 µM [4]: 79.8% | viability at 200 µM [4]: 77% | viability at 300 µM [4]: 73.2% | viability at 500 µM [4]: 66.1% | viability at 10 µM [5]: 103% | viability at 20 µM [5]: 102% | viability at 50 µM [5]: 107% | viability at 100 µM [5]: 112% | viability at 200 µM [5]: 113% | viability at 300 µM [5]: 110% | viability at 500 µM [5]: 105% | viability at 10 µM [6]: 110% | viability at 20 µM [6]: 107% | viability at 50 µM [6]: 111% | viability at 100 µM [6]: 113% | viability at 200 µM [6]: 113% | viability at 300 µM [6]: 112% | viability at 500 µM [6]: 107% | viability at 10 µM [7]: 93.7% | viability at 20 µM [7]: 99% | viability at 50 µM [7]: 97.4% | viability at 100 µM [7]: 105% | viability at 200 µM [7]: 101% | viability at 300 µM [7]: 98.4% | viability at 500 µM [7]: 93.8% | viability at 10 µM [8]: 97.5% | viability at 20 µM [8]: 97.8% | viability at 50 µM [8]: 94.5% | viability at 100 µM [8]: 95.3% | viability at 200 µM [8]: 86.5% | viability at 300 µM [8]: 75.3% | viability at 500 µM [8]: 57.4%
